Patent US20100152274A1, “CRYSTALLINE FORMS OF ATORVASTATIN 4-(NITROOXY) BUTYL ESTER” (Nicox S.A., priority 2007, published 2010)
Entries after “also recorded” stand apart in the source; their conditions may differ.

Assays:
Type in all cases: physicochemical
[1] = General stability statements (humidity, water, organic solvents, heat); conditions: no test details
[2] = Stability at 40° C. and 75% of relative humidity, open vials, monitored by Raman spectroscopy and PXRD; conditions: for Stability in the reported conditions (heat and humidity): 40° C. and 75% r.h., summary statement; for Change of solid form by PXRD and Raman: open vials, 40° C., 75% relative humidity, after one and four weeks; for RESULTING FORM: Storage at 40° C. and 75% r.h., 28 d.
Procedure: Stability at 40° C. and 75% of relative humidity of atorvastatin 4-(nitrooxy)butyl ester A and form B in comparison with the amorphous form was assessed. Atorvastatin 4-(nitrooxy)butyl ester form A, form B and amorphous were stored in open vials for one month at 40° C. and in presence of 75% of relative humidity, and the samples were monitored by Raman spectroscopy and by PXRD after one and four weeks.

[3] = Stability of amorphous form in aqueous suspension at room temperature, monitored by Raman spectroscopy and PXRD; conditions: for RESULTING FORM: Suspension in H2O, rt
Procedure: Stability of amorphous atorvastatin 4-(nitrooxy)butyl ester in aqueous suspension was assessed. Amorphous atorvastatin 4-(nitrooxy)butyl ester was suspended in water at room temperature while stirring and monitored by Raman spectroscopy after one, seven and twenty-eight days.

SMILES | Stability (general statement) ([1]; listed as amorphous form of Atorvastatin 4-(nitrooxy)butyl ester) | Stability in the reported conditions (heat and humidity) ([2]; listed as Amorphous form) | Change of solid form by PXRD and Raman ([2]; listed as amorphous atorvastatin 4-(nitrooxy)butyl ester) | RESULTING FORM ([3]; 1 d.) | RESULTING FORM ([3]; 1 d., listed as Amorphous atorvastatin 4-(nitrooxy)butyl ester) | RESULTING FORM ([3]; 7 d.) | RESULTING FORM ([3]; 7 d., listed as Amorphous atorvastatin 4-(nitrooxy)butyl ester) | RESULTING FORM ([3]; 28 d.) | RESULTING FORM ([3]; 28 d., listed as Amorphous atorvastatin 4-(nitrooxy)butyl ester) | Stability in aqueous suspension ([3]; room temperature, summary statement) | Stability (general statement) [1] | Stability in the reported conditions (heat and humidity) [2] | RESULTING FORM [2] | Change of solid form by PXRD and Raman [2]
CC(C)c1c(C(=O)Nc2ccccc2)c(-c2ccccc2)c(-c2ccc(F)cc2)n1CC[C@@H](O)C[C@@H](O)CC(=O)OCCCCO[N+](=O)[O-] [Amorphous, atorvastatin 4-(nitrooxy)butyl ester] | unstable at humidity conditions, in organic solvents and in stressed thermal conditions | not stable, showing rapid conversion to form B | converts to form B | Amorphous | pure amorphous | Amorphous (+B) | detectable amount of form B was observed; also recorded: start of crystallization of form B | Amorphous + B | mixture of amorphous form and form B | not stable in aqueous suspension at room temperature | – | – | – | –
CC(C)c1c(C(=O)Nc2ccccc2)c(-c2ccccc2)c(-c2ccc(F)cc2)n1CC[C@@H](O)C[C@@H](O)CC(=O)OCCCCO[N+](=O)[O-] [Form A, (βR,δR)-2(4-fluorophenyl)-β,δ-dihydroxy-5-(1-methylethyl)-3-phenyl-4-[(phenylamino)carbon-yl]-1H-pyrrole-1-heptanoic acid 4-(nitrooxy)butyl ester] | – | – | – | – | – | – | – | – | – | – | good stability in water, in organic solvents, and when exposed to heat and humidity | stable in the reported conditions for at least four weeks | Form A | no differences in the solid form
CC(C)c1c(C(=O)Nc2ccccc2)c(-c2ccccc2)c(-c2ccc(F)cc2)n1CC[C@@H](O)C[C@@H](O)CC(=O)OCCCCO[N+](=O)[O-] [Form B, (βR,δR)-2(4-fluorophenyl)-β,δ-dihydroxy-5-(1-methylethyl)-3-phenyl-4-[(phenylamino)carbon-yl]-1H-pyrrole-1-heptanoic acid 4-(nitrooxy)butyl ester] | – | – | – | – | – | – | – | – | – | – | good stability in water, in organic solvents, and when exposed to heat and humidity | stable in the reported conditions for at least four weeks | Form B | no differences in the solid form
